For data set [1] the following is noted: cited from earlier work.
Data set [2] is described as follows: Docetaxel PK samples (end of infusion), arm 2. It counts as in vivo, human. The settings on record: arm 2, IV docetaxel with MK-2206.
Procedure: For the Q3W schedule, samples were taken in cycle 1 on days 1 to 3 as per the QOD schedule, then on days 5, 7, 15, and in cycle 2 on day 1. Blood samples were collected predose and just before the end of the infusion for carboplatin, paclitaxel, and docetaxel for archival and possible PK analysis. Another sample was taken 30 minutes into the infusion of paclitaxel. These samples were archived for possible future analysis to investigate if any unexpected toxicities may have been as a result of a PK interaction.

Results on one compound are retold here after PMC3884022 (Journal of Hematology & Oncology, 2014).

For `CC(=O)O[C@@]12CO[C@@H]1C[C@H](O)[C@@]1(C)C(=O)[C@H](O)C3=C(C)[C@@H](OC(=O)[C@H](O)[C@@H](NC(=O)OC(C)(C)C)c4ccccc4)C[C@@](O)([C@@H](OC(=O)c4ccccc4)[C@H]21)C3(C)C` [docetaxel], the “mean end-of-infusion concentration, range of mean values in the literature” value in data set [1] is 1.68 to 4.06 µg/mL. The same compound registered a mean end-of-infusion concentration in data set [2] of 3.01 µg/mL.
